From patent publication US7205123B2, “Recombinant materials for carotenoid production” (DSM IP Assets B.V., priority 1995, dated 2007)

How the values were obtained:
[1] = tested on: Phaffia transformant G418-1; assay: Survival of Phaffia transformant G418-1 on YepD agar with increasing G418; type: cell-based, Phaffia rhodozyma
Procedure: To determine the expression of the G418 resistance gene in pGB-Ph9, transformant G418-1 (EP 0 590 707 A1) was exposed to increasing concentrations of G418.
Two dilutions of a G418-1 culture were plated onto YepD agar containing 0–1000 μg/ml G418 (Table 1).

Phaffia (CBS6938) = assay: Survival of untransformed Phaffia on YepD agar with increasing G418; type: cell-based, Phaffia rhodozyma; settings: Dil. 0 (OD600 = 5)

CN[C@@H]1[C@@H](O)[C@@H](O[C@@H]2[C@@H](O)[C@H](O[C@H]3O[C@H]([C@@H](C)O)[C@@H](O)[C@H](O)[C@H]3N)[C@@H](N)C[C@H]2N)OC[C@]1(C)O [G418]
Survival on YepD agar medium ([1]; G418 200 μg/ml, Dil. 10^-4 (OD600 = 7)): >300 | Survival on YepD agar medium ([1]; G418 200 μg/ml, Dil. 10^-5 (OD600 = 7)): 70 | Survival on YepD agar medium ([1]; G418 300 μg/ml, Dil. 10^-4 (OD600 = 7)): >300 | Survival on YepD agar medium ([1]; G418 300 μg/ml, Dil. 10^-5 (OD600 = 7)): 61 | Survival on YepD agar medium ([1]; G418 400 μg/ml, Dil. 10^-4 (OD600 = 7)): 212 | Survival on YepD agar medium ([1]; G418 400 μg/ml, Dil. 10^-5 (OD600 = 7)): 13 | Survival on YepD agar medium ([1]; G418 500 μg/ml, Dil. 10^-4 (OD600 = 7)): 10 | Survival on YepD agar medium ([1]; G418 500 μg/ml, Dil. 10^-5 (OD600 = 7)): 2 | plated cells survived ([1]; G418 600 μg/ml): less than 1% | Survival on YepD agar medium ([1]; G418 600 μg/ml, Dil. 10^-4 (OD600 = 7)): 0 | Survival on YepD agar medium ([1]; G418 600 μg/ml, Dil. 10^-5 (OD600 = 7)): 0 | Survival on YepD agar medium ([1]; G418 700 μg/ml, Dil. 10^-4 (OD600 = 7)): 0 | Survival on YepD agar medium ([1]; G418 700 μg/ml, Dil. 10^-5 (OD600 = 7)): 0 | Survival on YepD agar medium ([1]; G418 800 μg/ml, Dil. 10^-4 (OD600 = 7)): 0 | Survival on YepD agar medium ([1]; G418 800 μg/ml, Dil. 10^-5 (OD600 = 7)): 0 | Survival on YepD agar medium ([1]; G418 900 μg/ml, Dil. 10^-4 (OD600 = 7)): 0 | Survival on YepD agar medium ([1]; G418 900 μg/ml, Dil. 10^-5 (OD600 = 7)): 0 | Survival on YepD agar medium ([1]; G418 1000 μg/ml, Dil. 10^-4 (OD600 = 7)): 0 | Survival on YepD agar medium ([1]; G418 1000 μg/ml, Dil. 10^-5 (OD600 = 7)): 0 | Survival on YepD agar medium (Phaffia (CBS6938); G418 200 μg/ml): 0 | Survival on YepD agar medium (Phaffia (CBS6938); G418 300 μg/ml): 0 | Survival on YepD agar medium (Phaffia (CBS6938); G418 400 μg/ml): 0 | Survival on YepD agar medium (Phaffia (CBS6938); G418 500 μg/ml): 0 | Survival on YepD agar medium (Phaffia (CBS6938); G418 600 μg/ml): 0 | Survival on YepD agar medium (Phaffia (CBS6938); G418 700 μg/ml): 0 | Survival on YepD agar medium (Phaffia (CBS6938); G418 800 μg/ml): 0 | Survival on YepD agar medium (Phaffia (CBS6938); G418 900 μg/ml): 0 | Survival on YepD agar medium (Phaffia (CBS6938); G418 1000 μg/ml): 0
